Target: Sodium channel protein type 9 subunit alpha (Homo sapiens, UniProt Q15858)
Test: Inhibition of human Nav1.7 expressed in HEK293 cells assessed as inhibition of peak current after 50 secs by automated patch clamp assay
Type: cell-based

Sequence of Sodium channel protein type 9 subunit alpha (Q15858 whole entry): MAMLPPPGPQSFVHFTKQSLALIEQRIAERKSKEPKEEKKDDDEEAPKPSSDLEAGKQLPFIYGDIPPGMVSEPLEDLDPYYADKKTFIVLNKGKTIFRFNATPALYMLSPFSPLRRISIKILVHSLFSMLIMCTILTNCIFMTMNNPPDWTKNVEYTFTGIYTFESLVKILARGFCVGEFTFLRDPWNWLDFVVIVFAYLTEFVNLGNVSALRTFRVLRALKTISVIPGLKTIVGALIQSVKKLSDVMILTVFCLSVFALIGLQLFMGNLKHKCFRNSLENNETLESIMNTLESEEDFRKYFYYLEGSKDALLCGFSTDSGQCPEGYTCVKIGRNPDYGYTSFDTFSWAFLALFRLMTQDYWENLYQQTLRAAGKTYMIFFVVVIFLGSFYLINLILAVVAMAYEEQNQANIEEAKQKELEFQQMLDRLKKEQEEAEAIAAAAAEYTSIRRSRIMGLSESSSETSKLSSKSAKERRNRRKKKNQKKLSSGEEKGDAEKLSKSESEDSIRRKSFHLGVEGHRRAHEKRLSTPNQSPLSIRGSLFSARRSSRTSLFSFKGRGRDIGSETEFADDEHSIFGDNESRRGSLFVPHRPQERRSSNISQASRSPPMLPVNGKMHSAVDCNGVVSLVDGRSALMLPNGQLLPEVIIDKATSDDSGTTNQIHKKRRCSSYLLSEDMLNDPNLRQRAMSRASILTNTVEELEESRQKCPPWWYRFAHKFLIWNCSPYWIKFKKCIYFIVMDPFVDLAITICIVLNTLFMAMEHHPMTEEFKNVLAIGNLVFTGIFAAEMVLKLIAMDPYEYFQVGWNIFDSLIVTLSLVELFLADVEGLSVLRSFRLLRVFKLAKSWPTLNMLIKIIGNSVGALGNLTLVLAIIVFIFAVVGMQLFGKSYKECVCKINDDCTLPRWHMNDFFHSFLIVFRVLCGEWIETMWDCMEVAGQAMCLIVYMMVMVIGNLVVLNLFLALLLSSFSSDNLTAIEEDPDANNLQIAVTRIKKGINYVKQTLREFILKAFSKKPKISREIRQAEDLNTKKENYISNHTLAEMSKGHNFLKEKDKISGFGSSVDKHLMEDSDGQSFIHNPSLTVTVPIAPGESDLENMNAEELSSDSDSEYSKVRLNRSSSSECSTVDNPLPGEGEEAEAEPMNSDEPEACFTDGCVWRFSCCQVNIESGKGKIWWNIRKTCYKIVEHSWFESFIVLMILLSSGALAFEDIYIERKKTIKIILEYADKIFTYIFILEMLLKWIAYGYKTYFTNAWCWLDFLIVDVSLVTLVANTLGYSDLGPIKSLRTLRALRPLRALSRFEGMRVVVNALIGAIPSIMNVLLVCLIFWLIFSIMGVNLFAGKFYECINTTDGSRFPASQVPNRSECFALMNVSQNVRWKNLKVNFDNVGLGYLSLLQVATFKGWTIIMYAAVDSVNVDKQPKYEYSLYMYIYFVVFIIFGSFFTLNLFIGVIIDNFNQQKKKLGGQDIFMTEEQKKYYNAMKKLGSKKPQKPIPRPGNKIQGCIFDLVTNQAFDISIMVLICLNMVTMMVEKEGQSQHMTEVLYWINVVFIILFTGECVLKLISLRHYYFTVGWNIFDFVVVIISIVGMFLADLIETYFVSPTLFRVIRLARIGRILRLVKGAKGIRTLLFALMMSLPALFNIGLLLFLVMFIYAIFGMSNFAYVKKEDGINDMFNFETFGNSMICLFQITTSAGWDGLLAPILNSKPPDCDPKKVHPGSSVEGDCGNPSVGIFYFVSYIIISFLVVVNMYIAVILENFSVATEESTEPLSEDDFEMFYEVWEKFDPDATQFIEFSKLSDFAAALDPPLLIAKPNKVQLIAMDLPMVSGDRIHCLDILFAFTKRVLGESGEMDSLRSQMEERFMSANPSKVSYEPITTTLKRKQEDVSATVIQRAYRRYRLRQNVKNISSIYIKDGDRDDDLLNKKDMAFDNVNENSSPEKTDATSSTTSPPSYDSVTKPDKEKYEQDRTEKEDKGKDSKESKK

Row | Compound | IC50
1 | CS(=O)(=O)NC(=O)c1cc(Cl)c(-n2nc(Cl)c3cc(-c4cccc(Cl)c4F)ccc32)cc1F | 70 nM
2 | CS(=O)(=O)NC(=O)c1cc(Cl)c(-n2cc(F)c3cc(-c4cccc(Cl)c4)cnc32)cc1F | 50 nM
3 | CS(=O)(=O)NC(=O)c1cc(Cl)c(-n2nc(F)c3cc(-c4cccc(Cl)c4)ccc32)cc1F | 40 nM
4 | CS(=O)(=O)NC(=O)c1cc(Cl)c(-n2cc(F)c3cc(-c4ccc(C(F)(F)F)cc4)cnc32)cc1F | 50 nM
5 | CS(=O)(=O)NC(=O)c1cc(Cl)c(-n2nc(Cl)c3cc(-c4cc(F)ccc4F)ccc32)cc1F | 90 nM
6 | CS(=O)(=O)NC(=O)c1cc(Cl)c(-n2ncc3cc(-c4ccc(Cl)cc4F)ccc32)cc1F | 70 nM
7 | Cc1ccccc1-c1ccc2c(c1)c(F)nn2-c1cc(F)c(C(=O)NS(C)(=O)=O)cc1Cl | 60 nM
8 | COc1cccc(-c2ccc3c(c2)c(F)nn3-c2cc(F)c(C(=O)NS(C)(=O)=O)cc2Cl)c1 | 80 nM
9 | CS(=O)(=O)NC(=O)c1cc(Cl)c(-n2cc(Cl)c3cc(-c4ccc(F)cc4F)cnc32)cc1F | 80 nM
10 | Cc1cccc(-c2ccc3c(c2)c(Cl)nn3-c2cc(F)c(C(=O)NS(C)(=O)=O)cc2Cl)c1 | 39 nM
11 | CS(=O)(=O)NC(=O)c1cc(Cl)c(-n2nc(Cl)c3cc(-c4ccc(Cl)c(F)c4)ccc32)cc1F | 80 nM
12 | CS(=O)(=O)NC(=O)c1cc(Cl)c(-n2cc(F)c3cc(-c4cccc(Cl)c4F)cnc32)cc1F | 40 nM
13 | CS(=O)(=O)NC(=O)c1cc(Cl)c(-n2nc(Cl)c3cc(-c4cc(F)c(F)c(F)c4)ccc32)cc1F | 20 nM
14 | CS(=O)(=O)NC(=O)c1cc(Cl)c(-n2nc(Cl)c3cc(-c4ccc(OC(F)(F)F)cc4)ccc32)cc1F | 80 nM

Continued by falling IC50, values first:

Row | IC50 | Compound
15 | 90 nM | Cc1cc(F)ccc1-c1cnc2c(c1)c(Cl)cn2-c1cc(F)c(C(=O)NS(C)(=O)=O)cc1Cl
16 | 90 nM | CS(=O)(=O)NC(=O)c1cc(Cl)c(-n2nc(F)c3cc(-c4cccc(F)c4)ccc32)cc1F
17 | 80 nM | Cc1cccc(-c2ccc3c(c2)c(F)nn3-c2cc(F)c(C(=O)NS(C)(=O)=O)cc2Cl)c1
18 | 70 nM | CS(=O)(=O)NC(=O)c1cc(Cl)c(-n2ncc3cc(-c4cccc(Cl)c4)ccc32)cc1F
19 | 50 nM | CS(=O)(=O)NC(=O)c1cc(Cl)c(-n2cc(Cl)c3cc(-c4ccc(C(F)(F)F)cc4)cnc32)cc1F
20 | 40 nM | CS(=O)(=O)NC(=O)c1cc(Cl)c(-n2cc(Cl)c3cc(-c4ccc(F)cc4Cl)cnc32)cc1F
21 | 7.6 nM | CS(=O)(=O)NC(=O)c1cc(Cl)c(-n2nc(Cl)c3cc(OCc4ccc5ccccc5c4)ccc32)cc1F

— ChEMBL document CHEMBL4000254, “Sodium Channel Blockers” (ACS Med Chem Lett, 2017)
